Assay results from patent US6911221B2, “Anti-neoplastic drug” (priority 2001, dated 2005).

Tests used:
MADB106 tumor cells = assay: Pulmonary metastasis count after tail vein injection of MADB106 tumor cells, with or without β-receptor agonist MP; format: in vivo, Fischer rats; conditions: for effect of β-receptor agonist on number of MADB106 metastases (in words): MP injected at tumor cell inoculation
Experimental: 3. The experimental animals were divided into a test group and a control group. The animals in the test group were fed with 0.1, 0.5, 2 g/kg body weight ACNO mixed and standard powdered rodent food to which water was added (test food), every day. The animals in the control group received the same wet food mixture without ACNO (control food) in the same amount. All animals were fed at regular times every day. To adjust animals to the feeding protocol, all rats received the wet mixture without ACNO for 3 days before each experiment. Thereafter, the animals were fed test food and control food, respectively. Rats from all groups consumed more than 95% of the food each day. Approximately 70% of it was consumed during the dark phase. Body weight of each animal was monitored twice a week during the experiment. 4. MADB106 tumor cell—MADB106 cell was obtained from a pulmonary metastasis of a mammary adenocarcinoma (MADB100) by a special incubation. 5. Induction and counting of tumor metastasis—Rats were lightly anesthetized with halothane, and then 10^5 MADB106 tumor cells were injected into their tail vein. […] Rats were anesthetized with halothane after they were fed with ACNO for 3 weeks counted from the day of tumor inoculation, and their lungs were removed and placed in Bouin solution (72% saturated picric acid solution, 23% formaldehyde [37% solution] and 5% glacial acetic acid) for 24 h. Thereafter, the lungs were washed with ethanol, and then the cell number of pulmonary metastasis were counted by two experimenters unaware of the group origin (in a blind technique), independently. The obtained data were analyzed statistically. […] healthy […] Fischer rats that were 7-8 weeks old and of 120-170 g body weight (48 females and 61 males), were randomly divided into 2 groups, an experiment group and a control group. […] Thereafter, the lungs were washed with ethanol, and then the cell number of pulmonary metastasis were counted by two experimenters unaware of the group origin (in a blind technique), independently. The obtained data were analyzed statistically.

LEWIS lung cancer = conditions: subcutaneous transplantation; cited from earlier work
S180 sarcoma = conditions: subcutaneous transplantation; cited from earlier work
B16 melanoma = conditions: subcutaneous transplantation; cited from earlier work
NK and IL-2 activity = conditions: oral; lung cancer implanted mice and normal mice; cited from earlier work

SMILES | effect of β-receptor agonist on number of MADB106 metastases (in words) (MADB106 tumor cells) | effect of β-receptor agonist on number of MADB106 metastases (in words) (MADB106 tumor cells; listed as Metaproterenol) | cell number of MADB106 metastases (MADB106 tumor cells; control food plus MP injection, NS controls 70+14) | inhibition rate (LEWIS lung cancer) | inhibition rate (S180 sarcoma) | inhibition rate (B16 melanoma) | IL-2 activity (NK and IL-2 activity) | NK activity (NK and IL-2 activity)
CC(C)NCC(O)c1cc(O)cc(O)c1 (centres unmarked) [MP, Metaproterenol] | significantly increased the cells number of metastases | significantly increased the number of metastases | 255+32 | – | – | – | – | –
CC(C)=CCC[C@](C)(O)[C@H]1CC[C@]2(C)[C@@H]1[C@H](O)C[C@@H]1[C@@]3(C)CC[C@H](O[C@@H]4O[C@H](CO)[C@@H](O)[C@H](O)[C@H]4O[C@@H]4O[C@H](CO)[C@@H](O)[C@H](O)[C@H]4O)C(C)(C)[C@@H]3CC[C@]12C [Rg3, ginsenoside Rg3] | – | – | – | 50-60% | 50-60% | 50-60% | remarkably enhance | remarkably enhance
